pIC50: −log10 of the molar value. Where a name gives a salt, the structure may show the parent alone.
biological target: T1, PDE7 (type VII phosphodiesterase) (Homo sapiens, UniProt Q13946); test: PDE7 inhibiting activity (3H-cAMP hydrolysis, active fraction from MOLT-4 cells); format: biochemical; conditions: PDE7 fraction from MOLT-4 cells, 0.064 μM cAMP, 10 μM rolipram present, 2 hours at 25° C.; read-out: IC50 values for phosphodiesterase inhibiting activities (PDE7)
T1 construct: endogenous in cells; host or cells: MOLT-4 (ATCC CRL-1582), soluble fraction, HiTrapQ anion-exchange fraction
How it was run: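 PDE7 from MOLT-4 cell soluble fraction, HiTrapQ NaCl-gradient purified. Compounds reacted 2 h at 25° C in 20 mM tris-HCl pH 7.5, 1 mM MgCl2, 0.1 μCi 3H-cAMP (0.064 μM cAMP), 10 μM rolipram, 5′-nucleotidase; QAE-Sephadex-separated supernatant counted.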

T1 sequence (Q13946 whole entry): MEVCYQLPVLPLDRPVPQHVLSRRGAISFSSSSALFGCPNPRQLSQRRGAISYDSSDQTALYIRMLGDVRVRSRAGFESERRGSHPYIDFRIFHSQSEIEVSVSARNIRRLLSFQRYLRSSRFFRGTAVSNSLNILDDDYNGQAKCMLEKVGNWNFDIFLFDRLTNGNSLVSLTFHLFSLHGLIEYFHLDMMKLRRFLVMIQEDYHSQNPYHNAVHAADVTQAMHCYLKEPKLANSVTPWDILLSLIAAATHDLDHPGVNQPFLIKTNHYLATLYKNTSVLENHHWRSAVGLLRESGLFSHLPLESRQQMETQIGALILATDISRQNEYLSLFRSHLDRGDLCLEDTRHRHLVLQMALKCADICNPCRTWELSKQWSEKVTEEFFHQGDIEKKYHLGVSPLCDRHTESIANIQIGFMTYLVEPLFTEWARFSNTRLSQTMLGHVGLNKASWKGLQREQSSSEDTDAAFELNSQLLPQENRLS

Row | SMILES | pIC50
1 | COc1cc(/C=C/C(=O)O)ccc1-c1nc2c(C)nn(C3CCCCC3)c2c(=O)[nH]1 [Example 227, (2E)-3-[4-(1-cyclohexyl-3-methyl-7-oxo-6,7-dihydro-1H-pyrazolo[4,3-d]pyrimidin-5-yl)-3-methoxyphenyl]-2-propenic acid] | ≥ 8.00
2 | COc1cc(CCC(=O)O)ccc1-c1nc2c(C)nn(C3CCCCC3)c2c(=O)[nH]1 [Example 229, 3-[4-(1-Cyclohexyl-3-methyl-7-oxo-6,7-dihydro-1H-pyrazolo[4,3-d]pyrimidin-5-yl)-3-methoxyphenyl]propanic acid] | ≥ 6.00
3 | COc1cc(NCCN(C)C)ccc1-c1nc2c(C)nn(C3CCCCC3)c2c(=O)[nH]1 [Example 230, 1-Cyclohexyl-5-(4-{[2-(dimethylamino)ethyl]amino}-2-methoxyphenyl)-3-methyl-1,6-dihydro-7H-pyrazolo[4,3-d]pyrimidin-7-one] | ≥ 8.00
4 | COc1cc(NC2CCN(C(C)=O)CC2)ccc1-c1nc2c(C)nn(C3CCCCC3)c2c(=O)[nH]1 [Example 231, 5-{4-[(1-Acetyl-4-piperidinyl)amino]-2-methoxyphenyl}-1-cyclohexyl-3-methyl-1,6-dihydro-7H-pyrazolo[4,3-d]pyrimidin-7-one] | ≥ 6.00
5 | COc1cc(NC2CCN(C)CC2)ccc1-c1nc2c(C)nn(C3CCCCC3)c2c(=O)[nH]1 [Example 232, 1-Cyclohexyl-5-{2-methoxy-4-[(1-methyl-4-piperidinyl)amino]phenyl}-3-methyl-1,6-dihydro-7H-pyrazolo[4,3-d]pyrimidin-7-one] | ≥ 8.00
6 | COc1cc(CN2CCN(C)CC2)ccc1-c1nc2c(C)nn(C3CCCCC3)c2c(=O)[nH]1 [Example 234, 1-Cyclohexyl-5-{2-methoxy-4-[(4-methyl-1-piperazinyl)methyl]phenyl}-3-methyl-1,6-dihydro-7H-pyrazolo[4,3-d]pyrimidin-7-one] | ≥ 6.00
7 | COc1cc(CN2CCOCC2)ccc1-c1nc2c(C)nn(C3CCCCC3)c2c(=O)[nH]1 [Example 235, 1-Cyclohexyl-5-[2-methoxy-4-(4-morpholinylmethyl)phenyl]-3-methyl-1,6-dihydro-7H-pyrazolo[4,3-d]pyrimidin-7-one] | ≥ 6.00
8 | COc1cc(CN2CCC(O)CC2)ccc1-c1nc2c(C)nn(C3CCCCC3)c2c(=O)[nH]1 [Example 236, 1-Cyclohexyl-5-{4-[(4-hydroxy-1-piperidinyl)methyl]-2-methoxyphenyl}-3-methyl-1,6-dihydro-7H-pyrazolo[4,3-d]pyrimidin-7-one] | ≥ 6.00
9 | COCCNCc1ccc(-c2nc3c(C)nn(C4CCCCC4)c3c(=O)[nH]2)c(OC)c1 [Example 237, 1-Cyclohexyl-5-(2-methoxy-4-{[(2-methoxyethyl)amino]methyl}phenyl)-3-methyl-1,6-dihydro-7H-pyrazolo[4,3-d]pyrimidin-7-one] | ≥ 6.00
10 | COc1cc(CN2CCC(C(=O)O)CC2)ccc1-c1nc2c(C)nn(C3CCCCC3)c2c(=O)[nH]1 [Example 239, 1-[4-(1-Cyclohexyl-3-methyl-7-oxo-6,7-dihydro-1H-pyrazolo[4,3-d]pyrimidin-5-yl)-3-methoxybenzyl]-4-piperidinecarboxylic acid] | ≥ 6.00
11 | CNC1CCN(Cc2ccc(-c3nc4c(C)nn(C5CCCCC5)c4c(=O)[nH]3)c(OC)c2)CC1 [Example 241, 1-Cyclohexyl-5-(2-methoxy-4-{[4-(methylamino)-1-piperidinyl]methyl}phenyl)-3-methyl-1,6-dihydro-7H-pyrazolo[4,3-d]pyrimidin-7-one] | ≥ 6.00
12 | COc1cc(NC2CCOCC2)ccc1-c1nc2c(C)nn(C3CCCCC3)c2c(=O)[nH]1 [Example 242, 1-Cyclohexyl-5-[2-methoxy-4-(tetrahydro-2H-pyran-4-ylamino)phenyl]-3-methyl-1,6-dihydro-7H-pyrazolo[4,3-d]pyrimidin-7-one] | ≥ 6.00
13 | COc1cc(N2CCC(N(C)C)CC2)ccc1-c1nc2c(C)nn(C3CCCCC3)c2c(=O)[nH]1 [Example 245, 1-Cyclohexyl-5-{4-[4-(dimethylamino)-1-piperidinyl]-2-methoxyphenyl}-3-methyl-1,6-dihydro-7H-pyrazolo[4,3-d]pyrimidin-7-one] | ≥ 6.00
14 | COc1cc(N2CCC(N)CC2)ccc1-c1nc2c(C)nn(C3CCCCC3)c2c(=O)[nH]1 [Example 247, 5-[4-(4-Amino-1-piperidinyl)-2-methoxyphenyl]-1-cyclohexyl-3-methyl-1,6-dihydro-7H-pyrazolo[4,3-d]pyrimidin-7-one] | ≥ 6.00
15 | CCOc1cc(N2CCC(N(C)C)CC2)ccc1-c1nc2c(C)nn(C3CCCCC3)c2c(=O)[nH]1 [Example 250, 1-Cyclohexyl-5-{4-[4-(dimethylamino)-1-piperidinyl]-2-ethoxyphenyl}-3-methyl-1,6-dihydro-7H-pyrazolo[4,3-d]pyrimidin-7-one] | ≥ 8.00
16 | CCNC1CCN(c2ccc(-c3nc4c(C)nn(C5CCCCC5)c4c(=O)[nH]3)c(OCC)c2)CC1 [Example 253, 1-Cyclohexyl-5-{2-ethoxy-4-[4-(ethylamino)-1-piperidinyl]phenyl}-3-methyl-1,6-dihydro-7H-pyrazolo[4,3-d]pyrimidin-7-one] | ≥ 6.00

Row | SMILES | pIC50
17 | CCOc1cc(S(=O)(=O)N2CCCN(C)CC2)ccc1-c1nc2c(C)nn(C3CCCCC3)c2c(=O)[nH]1 [Example 256, 1-Cyclohexyl-5-{2-ethoxy-4-[(4-methyl-1,4-diazepan-1-yl)sulfonyl]phenyl}-3-methyl-1,6-dihydro-7H-pyrazolo[4,3-d]pyrimidin-7-one] | ≥ 6.00
18 | CCOc1cc(S(=O)(=O)N2CCC(O)CC2)ccc1-c1nc2c(C)nn(C3CCCCC3)c2c(=O)[nH]1 [Example 257, 1-Cyclohexyl-5-{2-ethoxy-4-[(4-hydroxy-1-piperidinyl)sulfonyl]phenyl}-3-methyl-1,6-dihydro-7H-pyrazolo[4,3-d]pyrimidin-7-one] | ≥ 6.00
19 | COc1cc(N2CCC(O)CC2)ccc1-c1nc2c(C)nn(C3CCCCC3)c2c(=O)[nH]1 [Example 258, 1-Cyclohexyl-5-[4-(4-hydroxy-1-piperidinyl)-2-methoxyphenyl]-3-methyl-1,6-dihydro-7H-pyrazolo[4,3-d]pyrimidin-7-one] | ≥ 6.00
20 | CCOc1cc(N2CCC(N)CC2)ccc1-c1nc2c(C)nn(C3CCCCC3)c2c(=O)[nH]1 [Example 260, 5-[4-(4-Amino-1-piperidinyl)-2-ethoxyphenyl]-1-cyclohexyl-3-methyl-1,6-dihydro-7H-pyrazolo[4,3-d]pyrimidin-7-one] | ≥ 8.00
21 | CCOc1cc(N2CCC(O)CC2)ccc1-c1nc2c(C)nn(C3CCCCC3)c2c(=O)[nH]1 [Example 261, 1-Cyclohexyl-5-[2-ethoxy-4-(4-hydroxy-1-piperidinyl)phenyl]-3-methyl-1,6-dihydro-7H-pyrazolo[4,3-d]pyrimidin-7-one] | ≥ 8.00
22 | CCOc1cc(N2CCCNCC2)ccc1-c1nc2c(C)nn(C3CCCCC3)c2c(=O)[nH]1 [Example 262, 1-Cyclohexyl-5-[4-(1,4-diazepan-1-yl)-2-ethoxyphenyl]-3-methyl-1,6-dihydro-7H-pyrazolo[4,3-d]pyrimidin-7-one] | ≥ 8.00
23 | CCOc1cc(NCCOC)ccc1-c1nc2c(C)nn(C3CCCCC3)c2c(=O)[nH]1 [Example 263, 1-Cyclohexyl-5-{2-ethoxy-4-[(2-methoxyethyl)amino]phenyl}-3-methyl-1,6-dihydro-7H-pyrazolo[4,3-d]pyrimidin-7-one] | ≥ 8.00
24 | CCOc1cc(N2CCN(C)CC2)ccc1-c1nc2c(C)nn(C3CCCCC3)c2c(=O)[nH]1 [Example 264, 1-Cyclohexyl-5-[2-ethoxy-4-(4-methyl-1-piperazinyl)phenyl]-3-methyl-1,6-dihydro-7H-pyrazolo[4,3-d]pyrimidin-7-one] | ≥ 6.00
25 | COc1cc(N2CCCNCC2)c(F)cc1-c1nc2c(C)nn(C3CCCCC3)c2c(=O)[nH]1 [Example 266, 1-Cyclohexyl-5-[4-(1,4-diazepan-1-yl)-5-fluoro-2-methoxyphenyl]-3-methyl-1,6-dihydro-7H-pyrazolo[4,3-d]pyrimidin-7-one] | ≥ 6.00
26 | COc1cc(N(C)C2CCN(C)CC2)ccc1-c1nc2c(C)nn(C3CCCCC3)c2c(=O)[nH]1 [Example 267, 1-Cyclohexyl-5-{2-methoxy-4-[methyl(1-methyl-4-piperidinyl)amino]phenyl}-3-methyl-1,6-dihydro-7H-pyrazolo[4,3-d]pyrimidin-7-one] | ≥ 6.00
27 | CCOc1cc(N2CCNCC2)ccc1-c1nc2c(C)nn(C3CCCCC3)c2c(=O)[nH]1 [Example 268, 1-Cyclohexyl-5-[2-ethoxy-4-(1-piperazinyl)phenyl]-3-methyl-1,6-dihydro-7H-pyrazolo[4,3-d]pyrimidin-7-one] | ≥ 6.00
28 | COc1cc(N2CC[C@@H](O)C2)ccc1-c1nc2c(C)nn(C3CCCCC3)c2c(=O)[nH]1 [Example 270, 1-Cyclohexyl-5-{4-[(3R)-3-hydroxypyrrolidinyl]-2-methoxyphenyl}-3-methyl-1,6-dihydro-7H-pyrazolo[4,3-d]pyrimidin-7-one] | ≥ 6.00
29 | COc1cc(C2=CCN(Cc3ccccc3)CC2)ccc1-c1nc2c(C)nn(C3CCCCC3)c2c(=O)[nH]1 [Example 272, 5-[4-(1-Benzyl-1,2,3,6-tetrahydro-4-pyridinyl)-2-methoxyphenyl]-1-cyclohexyl-3-methyl-1,6-dihydro-7H-pyrazolo[4,3-d]pyrimidin-7-one] | ≥ 6.00
30 | COc1cc(C2=CCNCC2)ccc1-c1nc2c(C)nn(C3CCCCC3)c2c(=O)[nH]1 [Example 273, 1-Cyclohexyl-5-[2-methoxy-4-(1,2,3,6-tetrahydro-4-pyridinyl)phenyl]-3-methyl-1,6-dihydro-7H-pyrazolo[4,3-d]pyrimidin-7-one monohydrochloride] | ≥ 6.00
31 | CCNc1ccc(-c2nc3c(C)nn(C4CCCCC4)c3c(=O)[nH]2)c(OC)c1 [Example 275, 1-Cyclohexyl-5-[4-(ethylamino)-2-methoxyphenyl]-3-methyl-1,6-dihydro-7H-pyrazolo[4,3-d]pyrimidin-7-one] | ≥ 6.00
